The results in this text go back to ChEMBL document CHEMBL3862033 (J Med Chem, 2016).

The target of assay [1] is T1, 5-hydroxytryptamine receptor 1A (Homo sapiens) (UniProt P08908).
T1 sequence (whole entry): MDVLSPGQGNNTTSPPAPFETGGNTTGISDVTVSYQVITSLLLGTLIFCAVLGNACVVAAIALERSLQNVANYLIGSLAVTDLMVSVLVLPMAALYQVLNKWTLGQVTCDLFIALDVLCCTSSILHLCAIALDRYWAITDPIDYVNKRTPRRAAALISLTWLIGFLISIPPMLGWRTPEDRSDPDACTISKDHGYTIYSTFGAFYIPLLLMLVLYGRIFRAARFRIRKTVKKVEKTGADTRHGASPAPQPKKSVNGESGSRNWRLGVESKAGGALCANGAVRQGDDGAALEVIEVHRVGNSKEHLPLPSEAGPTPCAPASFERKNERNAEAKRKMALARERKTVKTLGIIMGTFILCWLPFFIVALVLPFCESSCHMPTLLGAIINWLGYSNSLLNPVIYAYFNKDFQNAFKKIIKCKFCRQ
As to the kind of experiment: Displacement of [3H]WAY100635 from human 5-HT1AR expressed in CHO cell membranes at 10 uM incubated for 90 mins under dark condition by microbeta scintillation counting method relative to control. A general note: Displacement assays read how much labelled ligand stays bound in the presence of the test substance.

For assay [2], the target named is 5-hydroxytryptamine receptor 1B (Homo sapiens) (UniProt P28222). Kind of assay: Displacement of [3H]5-CT from human 5-HT1BR expressed in HEK cell membranes at 10 uM incubated for 90 mins under dark condition by microbeta scintillation counting method relative to control. As to conditions: HEK293.
In assay [3] the target is 5-hydroxytryptamine receptor 4 (Homo sapiens) (UniProt Q13639). As to the kind of experiment: Displacement of [3H]GR113808 from human 5-HT4 receptor at 10 uM incubated for 90 mins under dark condition by microbeta scintillation counting method relative to control.
For assay [4], the target named is 5-hydroxytryptamine receptor 6 (Homo sapiens) (UniProt P50406). As to the kind of experiment: Displacement of [3H]LSD from human 5-HT6 receptor expressed in HEK cell membranes at 10 uM incubated for 90 mins under dark condition by microbeta scintillation counting method relative to control. As to conditions: HEK293.
The target in assay [5] is 5-hydroxytryptamine receptor 7 (Homo sapiens) (UniProt P34969). Kind of assay: Displacement of [3H]LSD from human 5-HT7A receptor expressed in HEK cell membranes at 10 uM incubated for 90 mins under dark condition by microbeta scintillation counting method relative to control. As to conditions: HEK293.
In assay [6] the target is 5-hydroxytryptamine receptor 5A (Homo sapiens) (UniProt P47898). Kind of assay: Displacement of [3H]LSD from human 5-HT5A receptor expressed in Flp-In-CHO cell membranes incubated for 90 mins under dark condition by microbeta scintillation counting method relative to control. Also on record: concentration or dose not given beside the values.
Assay [7] deals with T2, 5-hydroxytryptamine receptor 2A (Homo sapiens, UniProt P28223). As to the kind of experiment: Displacement of [3H]ketanserin from human 5-HT2A receptor expressed in HEK-T cell membranes at 10 uM incubated for 90 mins under dark condition by microbeta scintillation counting method relative to control.
Assay [8] has as its target T3, 5-hydroxytryptamine receptor 2B (Homo sapiens, UniProt P41595). Kind of assay: biochemical. Format: cell-based, HEK293.
Another assay addresses T4, Adenosine receptor A3 (Homo sapiens, UniProt P0DMS8).
T4 sequence (P0DMS8 whole entry): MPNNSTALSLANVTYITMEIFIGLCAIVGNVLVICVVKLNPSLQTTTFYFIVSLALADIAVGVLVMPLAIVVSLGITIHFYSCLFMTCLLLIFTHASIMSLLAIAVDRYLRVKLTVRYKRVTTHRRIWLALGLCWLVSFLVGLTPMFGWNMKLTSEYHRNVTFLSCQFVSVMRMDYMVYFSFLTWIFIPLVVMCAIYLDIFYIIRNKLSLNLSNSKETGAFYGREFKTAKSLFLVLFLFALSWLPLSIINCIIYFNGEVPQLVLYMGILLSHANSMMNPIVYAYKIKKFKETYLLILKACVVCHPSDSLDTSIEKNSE
As to the kind of experiment: Displacement of [125l]N 6-(4-amino-3-iodobenzyl)adenosine-5'-N-methyluronamide from recombinant human A3AR expressed in CHO cell membranes after 60 mins by gamma counting method.

Assay [9] concerns the target T5, Adenosine receptor A3 (Mus musculus) (UniProt Q61618).
T5 sequence (whole entry): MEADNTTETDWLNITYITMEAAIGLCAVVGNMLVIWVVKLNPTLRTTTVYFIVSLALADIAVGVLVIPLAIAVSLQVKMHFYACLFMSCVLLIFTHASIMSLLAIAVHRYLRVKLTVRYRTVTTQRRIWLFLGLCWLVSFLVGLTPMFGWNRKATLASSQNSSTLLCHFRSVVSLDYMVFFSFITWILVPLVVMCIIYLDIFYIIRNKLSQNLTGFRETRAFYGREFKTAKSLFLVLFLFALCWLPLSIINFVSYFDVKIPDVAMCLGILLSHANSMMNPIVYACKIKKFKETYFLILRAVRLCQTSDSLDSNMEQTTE
As to the kind of experiment: Agonist activity at recombinant mouse A3AR expressed in HEK293 cells assessed as inhibition of forskolin-stimulated cAMP accumulation at 10 uM after 15 mins relative to adenosine-5'-N-ethyluronamide. Format: functional, cell-based. A general note: Changes in cAMP serve as a functional read-out for many G protein-coupled receptors.

In assay [10] the target is T6, 5-hydroxytryptamine receptor 2C (Homo sapiens, UniProt P28335).
T6 sequence (P28335 whole entry): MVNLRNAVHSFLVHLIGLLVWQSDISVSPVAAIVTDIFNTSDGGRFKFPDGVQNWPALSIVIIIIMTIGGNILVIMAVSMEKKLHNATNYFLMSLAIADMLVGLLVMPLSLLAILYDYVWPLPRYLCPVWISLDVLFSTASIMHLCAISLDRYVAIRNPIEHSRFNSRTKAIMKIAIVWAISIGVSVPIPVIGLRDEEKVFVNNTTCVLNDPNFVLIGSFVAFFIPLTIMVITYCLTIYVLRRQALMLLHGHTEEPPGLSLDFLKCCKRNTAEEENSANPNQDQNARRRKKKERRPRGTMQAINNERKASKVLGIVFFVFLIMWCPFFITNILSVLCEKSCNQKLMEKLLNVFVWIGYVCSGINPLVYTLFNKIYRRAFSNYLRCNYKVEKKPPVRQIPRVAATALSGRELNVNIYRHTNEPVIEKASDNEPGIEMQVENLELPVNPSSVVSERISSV
As to the kind of experiment: Antagonist activity at human 5-HT2CR expressed in Flp-In HEK cells assessed as inhibition of serotonin induced calcium mobilization preincubated for 5 to 10 mins followed 5-Ht addition by Fluo-4 dye based FLIPR assay. Format: functional, cell-based, HEK293. (A change in cytosolic calcium serves as a functional read-out for many receptors and channels.)

Assay [11] addresses T2, 5-hydroxytryptamine receptor 2A. Kind of assay: Displacement of [3H]ketanserin from human 5-HT2A receptor expressed in HEK-T cell membranes incubated for 90 mins under dark condition by microbeta scintillation counting method.
Assay [12] concerns the target T3, 5-hydroxytryptamine receptor 2B. As to conditions: HEK293, at 10 µM.

5-hydroxytryptamine receptor 5A (Homo sapiens), sequence (P47898 whole entry): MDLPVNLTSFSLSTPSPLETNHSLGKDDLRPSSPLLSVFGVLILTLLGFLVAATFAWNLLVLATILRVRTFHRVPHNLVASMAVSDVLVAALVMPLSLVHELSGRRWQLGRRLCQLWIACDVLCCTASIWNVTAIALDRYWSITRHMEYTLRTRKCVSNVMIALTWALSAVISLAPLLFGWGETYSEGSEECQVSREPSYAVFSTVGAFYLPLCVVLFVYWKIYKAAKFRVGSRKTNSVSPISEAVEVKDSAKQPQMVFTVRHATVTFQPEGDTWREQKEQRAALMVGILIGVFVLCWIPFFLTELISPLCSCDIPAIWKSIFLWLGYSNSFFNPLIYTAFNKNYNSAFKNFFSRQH
5-hydroxytryptamine receptor 7 (Homo sapiens), sequence (P34969 whole entry): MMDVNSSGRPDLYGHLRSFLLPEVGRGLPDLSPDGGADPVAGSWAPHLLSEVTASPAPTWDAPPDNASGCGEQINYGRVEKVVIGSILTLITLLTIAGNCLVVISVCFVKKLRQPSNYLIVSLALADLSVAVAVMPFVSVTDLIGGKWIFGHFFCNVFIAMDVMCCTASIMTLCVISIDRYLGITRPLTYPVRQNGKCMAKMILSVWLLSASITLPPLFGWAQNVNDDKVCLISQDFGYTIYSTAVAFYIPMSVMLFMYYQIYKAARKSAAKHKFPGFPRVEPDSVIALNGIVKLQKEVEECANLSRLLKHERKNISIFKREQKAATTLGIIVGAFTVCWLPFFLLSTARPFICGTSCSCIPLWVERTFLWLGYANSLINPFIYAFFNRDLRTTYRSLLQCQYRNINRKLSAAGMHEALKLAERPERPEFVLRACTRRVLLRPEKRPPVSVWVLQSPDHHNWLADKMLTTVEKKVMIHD
5-hydroxytryptamine receptor 4 (Homo sapiens), sequence (Q13639 whole entry): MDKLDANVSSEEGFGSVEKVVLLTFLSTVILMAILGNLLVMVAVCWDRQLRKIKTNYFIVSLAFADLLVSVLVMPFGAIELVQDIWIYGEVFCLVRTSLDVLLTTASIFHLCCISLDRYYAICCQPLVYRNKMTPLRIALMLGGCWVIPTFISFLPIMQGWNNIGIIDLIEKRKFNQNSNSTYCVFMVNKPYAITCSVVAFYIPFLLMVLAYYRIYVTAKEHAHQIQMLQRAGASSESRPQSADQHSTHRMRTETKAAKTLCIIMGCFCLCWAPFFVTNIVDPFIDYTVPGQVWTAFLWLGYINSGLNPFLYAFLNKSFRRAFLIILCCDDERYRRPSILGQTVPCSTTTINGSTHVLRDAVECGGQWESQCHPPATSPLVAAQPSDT
5-hydroxytryptamine receptor 1B (Homo sapiens), sequence (P28222 whole entry): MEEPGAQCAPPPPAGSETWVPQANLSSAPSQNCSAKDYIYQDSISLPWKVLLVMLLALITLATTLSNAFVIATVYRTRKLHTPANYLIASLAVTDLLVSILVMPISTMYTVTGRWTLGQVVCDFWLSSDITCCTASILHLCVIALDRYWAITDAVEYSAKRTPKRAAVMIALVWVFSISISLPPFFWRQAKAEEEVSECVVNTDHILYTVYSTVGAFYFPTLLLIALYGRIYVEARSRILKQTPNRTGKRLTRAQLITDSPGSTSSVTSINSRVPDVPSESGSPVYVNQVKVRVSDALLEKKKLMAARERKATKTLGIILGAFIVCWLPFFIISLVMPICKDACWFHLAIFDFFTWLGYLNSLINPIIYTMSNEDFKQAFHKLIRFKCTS
T2 sequence (P28223 whole entry): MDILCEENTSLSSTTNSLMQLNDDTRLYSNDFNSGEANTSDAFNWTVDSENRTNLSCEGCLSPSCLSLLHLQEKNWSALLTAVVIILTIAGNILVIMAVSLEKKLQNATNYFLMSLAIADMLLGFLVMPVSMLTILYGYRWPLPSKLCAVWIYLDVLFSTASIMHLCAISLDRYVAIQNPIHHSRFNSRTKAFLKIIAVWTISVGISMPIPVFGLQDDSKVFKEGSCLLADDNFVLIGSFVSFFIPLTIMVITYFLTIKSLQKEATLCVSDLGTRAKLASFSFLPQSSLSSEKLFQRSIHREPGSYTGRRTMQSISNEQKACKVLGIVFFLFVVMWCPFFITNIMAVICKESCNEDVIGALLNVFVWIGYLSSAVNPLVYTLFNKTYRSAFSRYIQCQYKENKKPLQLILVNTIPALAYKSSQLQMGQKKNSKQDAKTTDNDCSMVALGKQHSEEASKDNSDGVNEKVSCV
5-hydroxytryptamine receptor 6 (Homo sapiens), sequence (P50406 whole entry): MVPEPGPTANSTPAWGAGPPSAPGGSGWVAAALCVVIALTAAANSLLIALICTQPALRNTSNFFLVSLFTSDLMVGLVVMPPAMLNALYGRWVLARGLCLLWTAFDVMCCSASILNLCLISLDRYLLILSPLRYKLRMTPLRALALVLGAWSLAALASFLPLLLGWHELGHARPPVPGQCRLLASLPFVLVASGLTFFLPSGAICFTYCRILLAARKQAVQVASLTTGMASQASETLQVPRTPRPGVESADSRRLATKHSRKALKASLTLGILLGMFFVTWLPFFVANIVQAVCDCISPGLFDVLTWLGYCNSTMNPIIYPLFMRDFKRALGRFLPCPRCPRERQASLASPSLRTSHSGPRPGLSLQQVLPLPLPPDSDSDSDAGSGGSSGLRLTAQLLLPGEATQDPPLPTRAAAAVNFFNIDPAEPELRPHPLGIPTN
T3 sequence (P41595 whole entry): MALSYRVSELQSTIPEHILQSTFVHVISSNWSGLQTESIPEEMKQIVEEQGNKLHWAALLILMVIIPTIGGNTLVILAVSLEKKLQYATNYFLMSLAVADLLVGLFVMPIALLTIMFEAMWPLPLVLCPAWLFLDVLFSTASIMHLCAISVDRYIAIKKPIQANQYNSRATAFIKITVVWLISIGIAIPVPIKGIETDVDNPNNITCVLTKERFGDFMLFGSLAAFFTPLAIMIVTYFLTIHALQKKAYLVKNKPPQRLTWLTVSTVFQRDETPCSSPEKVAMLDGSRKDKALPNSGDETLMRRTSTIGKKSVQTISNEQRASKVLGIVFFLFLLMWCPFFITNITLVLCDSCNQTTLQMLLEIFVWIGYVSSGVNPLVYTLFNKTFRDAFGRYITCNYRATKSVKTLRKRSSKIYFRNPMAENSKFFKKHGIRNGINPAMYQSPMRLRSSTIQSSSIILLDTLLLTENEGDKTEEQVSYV

As usually defined, the inhibition is how much of the control response was suppressed. The Ki is a dissociation constant, usually derived from enzyme kinetics or from competition with a known ligand. Turning to `CNC(=O)[C@@]12C[C@@H]1[C@@H](n1cnc3c(NC(C4CC4)C4CC4)nc(Cl)nc31)[C@H](O)[C@@H]2O`, the inhibition in [1], in [2], in [3], in [4], in assay [5] and in assay [6] was < 50% in each case. Also, the values for the inhibition in assay [7] and in assay [12] were < 10% and > 50%, respectively. Also, the Ki in assay [8] was 0.023 µM; at Adenosine receptor A3, 0.034 µM; in assay [10] it was 0.752 µM; in assay [11], > 10 µM. In assay [9], the Imax was 96.7%.

Turning to `COC(=O)[C@@]12C[C@@H]1[C@@H](n1cnc3c(NC(C4CC4)C4CC4)nc(Cl)nc31)[C@H](O)[C@@H]2O`, the inhibition in assay [1], in assay [2], in assay [3], in assay [4], in assay [5] and in [6] was < 50% throughout. The inhibition in assay [7] is < 10%; in assay [12], > 50%. Besides, the Ki in [8] was 0.019 µM; at Adenosine receptor A3, 0.766 µM; in [10] it was 0.0041 µM; in assay [11], > 10 µM. In addition, the Imax in assay [9] came out at 41.4%.

Take `OC[C@@]12C[C@@H]1[C@@H](n1cnc3c(NC(C4CC4)C4CC4)nc(Cl)nc31)[C@H](O)[C@@H]2O`: the inhibition in [1], in assay [2], in assay [3], in assay [4], in assay [5] and in assay [6] was < 50% throughout. In addition, in [7], the inhibition was < 10%. The Ki is 1.6 µM at Adenosine receptor A3, 0.337 µM in assay [10] and > 10 µM in assay [11].

On to `CCOC(=O)[C@@]12C[C@@H]1[C@@H](n1cnc3c(NC(C4CC4)C4CC4)nc(Cl)nc31)[C@H](O)[C@@H]2O`, for which the inhibition in assay [1], in assay [2], in assay [3], in assay [4], in assay [5] and in [6] was < 50% throughout. The inhibition in assay [12] is > 50%. Further, the Ki in [8] was 0.015 µM; at Adenosine receptor A3, 0.236 µM; in assay [10], 0.0039 µM; in assay [11], > 10 µM. Besides, the Imax in assay [9] was 26.3%.
